Experimental data reported in patent US20250026746A1, “ENHANCERS OF PARTICULATE GUANYLYL CYCLASE RECEPTOR A” (Mayo Foundation for Medical Education and Research, priority 2021, published 2025).
Structures can show the parent of a compound that is named as a salt.

How the values were obtained:
human GC-A = biological target: T1, human GC-A (Homo sapiens, UniProt P16066); experiment: EC50 and Emax cGMP determination, HTRF, human GC-A overexpressing HEK293 cells; assay type: cell-based; details: for Emax: HEK293, HEK293 GC-A cells, read-out: EMax cGMP activities; for Emax / EMax cGMP activities: 100% = saturating ANP (10 nM), 0% = EC20 ANP; for EC50: EC20 ANP, read-out: EC50 cGMP activities
T1 construct: host or cells: HEK293
T1 sequence (P16066 33-1061): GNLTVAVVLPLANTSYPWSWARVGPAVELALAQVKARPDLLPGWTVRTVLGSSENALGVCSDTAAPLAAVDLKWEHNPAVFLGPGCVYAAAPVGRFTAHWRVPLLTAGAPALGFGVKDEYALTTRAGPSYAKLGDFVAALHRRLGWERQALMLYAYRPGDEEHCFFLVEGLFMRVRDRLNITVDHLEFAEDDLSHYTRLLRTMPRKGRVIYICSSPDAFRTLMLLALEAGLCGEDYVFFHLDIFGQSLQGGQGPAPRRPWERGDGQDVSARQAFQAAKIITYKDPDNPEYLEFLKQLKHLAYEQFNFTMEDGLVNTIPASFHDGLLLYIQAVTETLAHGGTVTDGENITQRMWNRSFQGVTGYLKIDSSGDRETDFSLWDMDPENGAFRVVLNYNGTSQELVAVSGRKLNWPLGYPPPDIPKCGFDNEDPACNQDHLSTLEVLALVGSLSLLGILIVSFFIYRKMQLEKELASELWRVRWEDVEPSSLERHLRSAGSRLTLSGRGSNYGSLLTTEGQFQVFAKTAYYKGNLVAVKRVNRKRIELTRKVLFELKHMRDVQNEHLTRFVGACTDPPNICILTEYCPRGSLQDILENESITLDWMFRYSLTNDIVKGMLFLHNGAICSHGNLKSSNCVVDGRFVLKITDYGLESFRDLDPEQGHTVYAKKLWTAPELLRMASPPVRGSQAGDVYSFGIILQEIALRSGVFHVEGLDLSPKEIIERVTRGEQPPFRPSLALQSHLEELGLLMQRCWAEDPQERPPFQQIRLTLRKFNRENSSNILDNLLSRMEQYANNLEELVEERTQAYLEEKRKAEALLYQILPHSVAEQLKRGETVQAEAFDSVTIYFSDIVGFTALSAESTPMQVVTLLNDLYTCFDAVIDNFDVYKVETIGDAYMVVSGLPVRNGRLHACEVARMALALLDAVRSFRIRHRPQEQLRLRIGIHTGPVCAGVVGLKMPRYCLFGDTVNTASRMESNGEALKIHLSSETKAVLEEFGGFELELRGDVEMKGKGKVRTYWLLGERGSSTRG
T1 sequence (P01160 124-151 partner limits assumed): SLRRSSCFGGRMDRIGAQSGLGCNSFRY
Protocol: Test compounds were evaluated for potentiation of cGMP in human GC-A overexpressing HEK293 cells (Cardiorenal Research Laboratory, Mayo Clinic). Test compounds at 10 mM DMSO stock concentration were dispensed into 384 well small volume white plates using Tecan D300e digital dispenser starting at 5 μM or 40 μM concentration and diluted 2-fold for 10-point concentration response. Wells were backfilled with DMSO such that the final concentration of DMSO in all wells was maintained at 0.3% DMSO. Atrial natriuretic peptide (ANP, Phoenix Pharmaceuticals) ANP was prepared as working stock aliquots at 5 μM in phosphate-buffered solution (PBS) with 0.1% bovine serum albumin (BSA) and diluted to […] in buffer plus Tween20 at 0.3% and added to plates to a final concentration equivalent to EC20 ANP in the cGMP assay. GC-A cells in suspension ([…]) in OptiMem media (ThermoFisher 11058-021) supplemented with 2% fetal bovine serum were plated at 1×10^6 cells/mL and assay plates were spun at 1000 rpm for 30 sec and incubated at room temperature for 30 min. GC-A-mediated activation of cGMP production was measured using cGMP CisBio detection homogenous time-resolved florescence (HTRF) competition assay using labeled-cGMP in human GC-A-overexpressing HEK293 cells. 5 μL of d-2 acceptor was dispensed into each well followed by addition of 5 μL of Anti-cGMP Eu-Cryptate antibody donor and plates were spun at 1000 rpm for 30 sec and incubated in the dark at room temperature for 1 hr. HTRF florescence was read on the ClarioStar microplate reader (BMG). A 100% response was determined from wells in the absence of compound and presence of saturating concentration of ANP (10 nM), and 0) % response was determined from wells containing an EC20 concentration of ANP determined for each new lot of ANP. Concentration-response curves for test compounds were analyzed by […] analysis using GraphPad software to determine EC50 and Emax values.

[1] = biological target: T2, extracellular domain human GC-A recombinant protein (Homo sapiens, UniProt P16066); experiment: Surface plasmon resonance binding to GC-A receptor; details: acetate salt; for Kd: SPR 25° C., 1:1 Langmuir model
T2 construct: extracellular domain human GC-A recombinant protein; purchased My BioSource, Inc. San Diego, CA
T2 sequence (P16066 33-473 limits assumed): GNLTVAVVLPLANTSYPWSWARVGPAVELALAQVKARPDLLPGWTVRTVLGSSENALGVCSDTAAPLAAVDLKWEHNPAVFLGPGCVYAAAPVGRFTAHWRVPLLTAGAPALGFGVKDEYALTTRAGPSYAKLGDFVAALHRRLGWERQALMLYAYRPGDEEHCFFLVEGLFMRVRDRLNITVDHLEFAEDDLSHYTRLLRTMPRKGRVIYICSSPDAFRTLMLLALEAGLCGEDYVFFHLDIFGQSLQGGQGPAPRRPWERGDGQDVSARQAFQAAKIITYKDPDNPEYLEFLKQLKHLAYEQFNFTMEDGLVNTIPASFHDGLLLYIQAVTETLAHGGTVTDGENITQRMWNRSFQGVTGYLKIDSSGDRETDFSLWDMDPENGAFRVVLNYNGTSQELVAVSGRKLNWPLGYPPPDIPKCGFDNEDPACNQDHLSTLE
Protocol: Surface plasmon resonance (SPR) measurements were performed at 25° C. on a BI-4500 SPR instrument (Biosensing Instrument Inc. Tempe AZ). As per the instructions by the Biosensing instrument manual, 400 mM nickel sulfate in deionized water was linked to the Ni-NTA sensor chip (Biosensing Instrument Inc. Tempe AZ. Then 30 μg/ml of extracellular domain human GC-A recombinant protein (My BioSource, Inc. San Diego, CA), containing 12 histidine residues on the C-terminus, was then immobilized to the nickel sulfate on the Ni-NTA sensor chip. After, the chip was washed with buffer (150 mM NaCl, 50 μM EDTA pH 7.4, 0).1% DMSO), then 100 μL of sequentially diluted Compound 3 acetate salt (0.125, 0.25, 0.5, 1, 2 μM), Compound 1 acetate salt (6.25, 12.5, 25, 50, 100 nM) or Compound 2 acetate salt (0.125, 0.25, 0.5, 1, 2 μM) was injected at the rate of 60 ul/min and allowed to dissociate for 60 seconds. Data was collected as sensorgrams. Binding kinetics were derived from sensorgrams using BI-Data Analysis Program (Biosensing Instrument, Tempe AZ). Affinity analysis of GC-A with Compound 3, Compound 2 and/or Compound 1 interactions were performed using a 1:1 Langmuir binding model. Two series were performed for all studies.

[2] = tested on: Primary Human cardiomyocytes; experiment: cGMP levels (ELISA) in human cardiomyocytes; assay type: cell-based; details: acetate salt, 1 or 10 μM, ANP (10^-10 M), vs vehicle
Protocol: Primary Human cardiomyocytes (HCMs: Catalog No. 6200, Lot No. 6288, PromoCell) were maintained and subcultured according to the manufacturer's protocols. Passage 5 was used in the study. Treatment buffer, Compound 3, Compound 1 and Compound 2 acetate salt, ANP, and vehicle were prepared as described above. Briefly, 5×10^5 of cells/well were grown in 6-well plates until 80 to 90% confluency and were then pretreated with vehicle or Compound 3, Compound 1 or Compound 2 at doses of 1 or 10 μM for 5 min at 37° C., then cells were treated with ANP (10^-10 M) for an additional 10 min at 37° C. Afterward, all cells were washed with PBS once and lysed with 0.1 M HCl at room temperature, and intracellular cGMP levels were measured in the lysate using a commercial cGMP ELISA kit (Enzo Life Sciences) with the acetylation method as instructed by the manufacturer.

| Compound | Emax (human GC-A) [%] | EC50 (human GC-A; HEK293 GC-A cells) [nM] | potency in potentiating ANP-mediated cGMP generation (comparison between forms/enantiomers) (human GC-A; HEK293 GC-A cells) | EMax cGMP activities (human GC-A; HEK293 GC-A cells) [%] | Kd [1] [nM] | cGMP generation in HCMs in the presence of ANP [2] | binding for the GC-A receptor compared with Compound 3 and Compound 2 acetate salts ([1]; SPR) |
| --- | --- | --- | --- | --- | --- | --- | --- |
| CN(C)CCN1CCCC(C(=O)Nc2nc3c(F)cc(F)cc3s2)C1 (racemic) [Compound 3 TFA salt, N-(4,6-difluorobenzo[d]thiazol-2-yl)-1-(2-(dimethylamino)ethyl) piperidine-3-carboxamide] | 95.8 | 570 |  |  |  |  |  |
| CN(C)CCN1CCCC(C(=O)Nc2nc3c(F)cc(F)cc3s2)C1 (racemic) [Compound 3 acetate salt, N-(4,6-difluoro-1,3-benzothiazol-2-yl)-1-[2-(dimethylamino)ethyl]piperidine-3-carboxamide] |  | 320 | more potent | 84.0 | 176 | dose dependent increase |  |
| CN(C)CCN1CCC[C@H](C(=O)Nc2nc3c(F)cc(F)cc3s2)C1 [Compound 1 TFA salt, (S)-N-(4,6-difluorobenzo[d]thiazol-2-yl)-1-(2-(dimethylamino)ethyl) piperidine-3-carboxamide] |  | 160 |  | 75.3 |  |  |  |
| CN(C)CCN1CCC[C@H](C(=O)Nc2nc3c(F)cc(F)cc3s2)C1 [Compound 1 acetate salt, (S)-N-(4,6-difluoro-1,3-benzothiazol-2-yl)-1-[2-(dimethylamino)ethyl]piperidine-3-carboxamide] | 81.5 | 150 |  |  | 12 |  | greater binding |
| CN(C)CCN1CCC[C@@H](C(=O)Nc2nc3c(F)cc(F)cc3s2)C1 [Compound 2 TFA salt, (R)-N-(4,6-difluorobenzo[d]thiazol-2-yl)-1-(2-(dimethylamino)ethyl) piperidine-3-carboxamide] | 82.7 | 730 |  |  |  |  |  |
| CN(C)CCN1CCC[C@@H](C(=O)Nc2nc3c(F)cc(F)cc3s2)C1 [Compound 2 acetate salt, (R)-N-(4,6-difluoro-1,3-benzothiazol-2-yl)-1-[2-(dimethylamino)ethyl]piperidine-3-carboxamide] |  | 1320 |  | 73.1 | 120 |  |  |
